Measurements reported in ChEMBL document CHEMBL5723582, “Data for DCP probe T-10430” (2024).

Columns and labels:
Conditions in all cases: Compound concentration 1.0 uM
[1] = target: P2Y purinoceptor 1 (Homo sapiens) (UniProt P47900); assay: RLU of P2RY1 at 1.0 µM in the […] PRESTO-Tango GPCRome screen
[2] = target: Muscarinic acetylcholine receptor M2 (Homo sapiens) (UniProt P08172); assay: RLU of CHRM2 at 1.0 µM in the […] PRESTO-Tango GPCRome screen
[3] = target: G-protein coupled bile acid receptor 1 (Homo sapiens) (UniProt Q8TDU6); assay: RLU of GPBA at 1.0 µM in the […] PRESTO-Tango GPCRome screen
[4] = target: G-protein coupled receptor 52 (Homo sapiens) (UniProt Q9Y2T5); assay: RLU of GPR52 at 1.0 µM in the […] PRESTO-Tango GPCRome screen
[5] = target: C-X-C chemokine receptor type 3 (Homo sapiens) (UniProt P49682); assay: RLU of CXCR3 at 1.0 µM in the […] PRESTO-Tango GPCRome screen
[6] = target: 5-hydroxytryptamine receptor 5A (Homo sapiens) (UniProt P47898); assay: RLU of HTR5 at 1.0 µM in the […] PRESTO-Tango GPCRome screen
[7] = target: Probable G-protein coupled receptor 150 (Homo sapiens) (UniProt Q8NGU9); assay: RLU of GPR150 at 1.0 µM in the […] PRESTO-Tango GPCRome screen
[8] = target: B2 bradykinin receptor (Homo sapiens) (UniProt P30411); assay: RLU of BDKRB2 at 1.0 µM in the […] PRESTO-Tango GPCRome screen
[9] = target: Metabotropic glutamate receptor 5 (Homo sapiens) (UniProt P41594); assay: RLU of GRM5 at 1.0 µM in the Aequorin PRESTO-Tango GPCRome screen
[10] = target: Glucagon receptor (Homo sapiens) (UniProt P47871); assay: RLU of GCGR at 1.0 µM in the […] PRESTO-Tango GPCRome screen
[11] = target: Chemerin-like receptor 1 (Homo sapiens) (UniProt Q99788); assay: RLU of CMKLR1 at 1.0 µM in the […] PRESTO-Tango GPCRome screen
[12] = target: CX3C chemokine receptor 1 (Homo sapiens) (UniProt P49238); assay: RLU of CX3C1 at 1.0 µM in the […] PRESTO-Tango GPCRome screen
[13] = target: Lysophosphatidic acid receptor 5 (Homo sapiens) (UniProt Q9H1C0); assay: RLU of LPAR5 at 1.0 µM in the […] PRESTO-Tango GPCRome screen
[14] = target: Probable G-protein coupled receptor 75 (Homo sapiens) (UniProt O95800); assay: RLU of GPR75 at 1.0 µM in the […] PRESTO-Tango GPCRome screen
[15] = target: Probable G-protein coupled receptor 25 (Homo sapiens) (UniProt O00155); assay: RLU of GPR25 at 1.0 µM in the […] PRESTO-Tango GPCRome screen
[16] = target: Gastrin-releasing peptide receptor (Homo sapiens) (UniProt P30550); assay: RLU of GRPR at 1.0 µM in the Aequorin PRESTO-Tango GPCRome screen
[17] = target: Parathyroid hormone/parathyroid hormone-related peptide receptor (Homo sapiens) (UniProt Q03431); assay: RLU of PTH1R at 1.0 µM in the […] PRESTO-Tango GPCRome screen
[18] = target: Neuropeptide S receptor (Homo sapiens) (UniProt Q6W5P4); assay: RLU of NPS at 1.0 µM in the […] PRESTO-Tango GPCRome screen
[19] = target: Oxoeicosanoid receptor 1 (Homo sapiens) (UniProt Q8TDS5); assay: RLU of OXER1 at 1.0 µM in the […] PRESTO-Tango GPCRome screen
[20] = target: Chemerin-like receptor 2 (Homo sapiens) (UniProt P46091); assay: RLU of GPR1 at 1.0 µM in the […] PRESTO-Tango GPCRome screen
[21] = target: Relaxin-3 receptor 1 (Homo sapiens) (UniProt Q9NSD7); assay: RLU of RXFP3 at 1.0 µM in the […] PRESTO-Tango GPCRome screen
[22] = target: Metabotropic glutamate receptor 6 (Homo sapiens) (UniProt O15303); assay: RLU of GRM6 at 1.0 µM in the Aequorin PRESTO-Tango GPCRome screen
[23] = target: C-C chemokine receptor type 3 (Homo sapiens) (UniProt P51677); assay: RLU of CCR3 at 1.0 µM in the […] PRESTO-Tango GPCRome screen
[24] = target: Beta-3 adrenergic receptor (Homo sapiens) (UniProt P13945); assay: RLU of ADRB3 at 1.0 µM in the […] PRESTO-Tango GPCRome screen
[25] = target: Mas-related G-protein coupled receptor member X2 (Homo sapiens) (UniProt Q96LB1); assay: RLU of MRGPRX2 at 1.0 µM in the […] PRESTO-Tango GPCRome screen
[26] = target: Probable G-protein coupled receptor 174 (Homo sapiens) (UniProt Q9BXC1); assay: RLU of GPR174 at 1.0 µM in the […] PRESTO-Tango GPCRome screen
[27] = target: Probable G-protein coupled receptor 82 (Homo sapiens) (UniProt Q96P67); assay: RLU of GPR82 at 1.0 µM in the […] PRESTO-Tango GPCRome screen
[28] = target: Sphingosine 1-phosphate receptor 3 (Homo sapiens) (UniProt Q99500); assay: RLU of S1PR3 at 1.0 µM in the […] PRESTO-Tango GPCRome screen
[29] = target: Putative adhesion G protein-coupled receptor F2P (Homo sapiens) (UniProt Q8IZF7); assay: RLU of GPR111 at 1.0 µM in the […] PRESTO-Tango GPCRome screen
[30] = target: Uracil nucleotide/cysteinyl leukotriene receptor (Homo sapiens) (UniProt Q13304); assay: RLU of GPR17 at 1.0 µM in the […] PRESTO-Tango GPCRome screen
[31] = target: Neuropeptide Y receptor type 4 (Homo sapiens) (UniProt P50391); assay: RLU of NPY4R at 1.0 µM in the […] PRESTO-Tango GPCRome screen
[32] = target: Neuropeptide Y receptor type 1 (Homo sapiens) (UniProt P25929); assay: RLU of NPY1R at 1.0 µM in the […] PRESTO-Tango GPCRome screen
[33] = target: Adhesion G-protein coupled receptor G1 (Homo sapiens) (UniProt Q9Y653); assay: RLU of GPR56 at 1.0 µM in the […] PRESTO-Tango GPCRome screen
[34] = target: D(1A) dopamine receptor (Homo sapiens) (UniProt P21728); assay: RLU of DRD1 at 1.0 µM in the […] PRESTO-Tango GPCRome screen
[35] = target: G-protein coupled receptor 35 (Homo sapiens) (UniProt Q9HC97); assay: RLU of GPR35 at 1.0 µM in the […] PRESTO-Tango GPCRome screen

Chain of Relaxin-3 receptor 1 (Homo sapiens) (Q9NSD7 whole entry): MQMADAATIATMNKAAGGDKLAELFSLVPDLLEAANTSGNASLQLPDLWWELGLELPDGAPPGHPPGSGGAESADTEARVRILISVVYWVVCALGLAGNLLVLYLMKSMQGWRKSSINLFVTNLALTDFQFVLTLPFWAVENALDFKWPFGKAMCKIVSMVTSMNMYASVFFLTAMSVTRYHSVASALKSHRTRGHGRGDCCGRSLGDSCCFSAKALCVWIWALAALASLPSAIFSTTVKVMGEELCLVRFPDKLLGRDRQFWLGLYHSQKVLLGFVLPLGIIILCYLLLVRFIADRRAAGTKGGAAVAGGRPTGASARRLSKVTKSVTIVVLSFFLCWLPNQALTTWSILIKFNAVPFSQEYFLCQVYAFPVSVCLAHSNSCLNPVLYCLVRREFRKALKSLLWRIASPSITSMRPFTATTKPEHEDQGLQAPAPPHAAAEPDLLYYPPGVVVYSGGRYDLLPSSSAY
Chain of G-protein coupled bile acid receptor 1 (Homo sapiens) (Q8TDU6 whole entry): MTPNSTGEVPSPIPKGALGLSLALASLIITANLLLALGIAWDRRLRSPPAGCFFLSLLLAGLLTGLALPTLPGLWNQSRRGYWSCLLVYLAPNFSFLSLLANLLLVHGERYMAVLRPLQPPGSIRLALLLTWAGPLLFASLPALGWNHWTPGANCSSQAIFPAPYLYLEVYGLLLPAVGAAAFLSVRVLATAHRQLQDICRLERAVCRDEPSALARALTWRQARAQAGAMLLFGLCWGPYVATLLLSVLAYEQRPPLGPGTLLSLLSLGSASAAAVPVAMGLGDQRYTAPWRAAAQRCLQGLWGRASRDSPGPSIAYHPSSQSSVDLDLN
Chain of Neuropeptide S receptor (Homo sapiens) (Q6W5P4 whole entry): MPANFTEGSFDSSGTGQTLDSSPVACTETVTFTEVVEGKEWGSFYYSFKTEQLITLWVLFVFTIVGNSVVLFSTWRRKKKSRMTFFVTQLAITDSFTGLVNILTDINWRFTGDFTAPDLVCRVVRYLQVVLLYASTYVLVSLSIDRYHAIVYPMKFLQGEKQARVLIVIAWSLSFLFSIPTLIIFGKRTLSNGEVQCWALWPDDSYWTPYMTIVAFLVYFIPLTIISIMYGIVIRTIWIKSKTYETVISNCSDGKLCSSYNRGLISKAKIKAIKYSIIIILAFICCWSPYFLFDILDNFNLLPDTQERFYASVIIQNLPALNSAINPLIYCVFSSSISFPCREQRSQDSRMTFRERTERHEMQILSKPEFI
Chain of Parathyroid hormone/parathyroid hormone-related peptide receptor (Homo sapiens) (Q03431 whole entry): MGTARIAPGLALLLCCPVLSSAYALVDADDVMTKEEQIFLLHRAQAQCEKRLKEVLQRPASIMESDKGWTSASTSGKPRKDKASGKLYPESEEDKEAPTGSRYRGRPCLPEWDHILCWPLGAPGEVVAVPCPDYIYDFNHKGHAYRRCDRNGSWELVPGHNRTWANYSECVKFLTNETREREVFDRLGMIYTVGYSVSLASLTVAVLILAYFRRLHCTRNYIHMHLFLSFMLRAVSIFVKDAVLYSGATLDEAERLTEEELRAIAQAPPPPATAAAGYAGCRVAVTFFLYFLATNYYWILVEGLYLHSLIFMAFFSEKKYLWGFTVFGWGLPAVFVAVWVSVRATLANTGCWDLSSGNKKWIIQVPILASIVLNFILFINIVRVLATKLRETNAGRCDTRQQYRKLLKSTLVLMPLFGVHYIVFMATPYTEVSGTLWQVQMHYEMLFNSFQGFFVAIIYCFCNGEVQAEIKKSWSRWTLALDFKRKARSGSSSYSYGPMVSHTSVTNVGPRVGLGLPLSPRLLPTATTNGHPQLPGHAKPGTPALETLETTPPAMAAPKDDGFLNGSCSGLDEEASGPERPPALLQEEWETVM
Chain of CX3C chemokine receptor 1 (Homo sapiens) (P49238 whole entry): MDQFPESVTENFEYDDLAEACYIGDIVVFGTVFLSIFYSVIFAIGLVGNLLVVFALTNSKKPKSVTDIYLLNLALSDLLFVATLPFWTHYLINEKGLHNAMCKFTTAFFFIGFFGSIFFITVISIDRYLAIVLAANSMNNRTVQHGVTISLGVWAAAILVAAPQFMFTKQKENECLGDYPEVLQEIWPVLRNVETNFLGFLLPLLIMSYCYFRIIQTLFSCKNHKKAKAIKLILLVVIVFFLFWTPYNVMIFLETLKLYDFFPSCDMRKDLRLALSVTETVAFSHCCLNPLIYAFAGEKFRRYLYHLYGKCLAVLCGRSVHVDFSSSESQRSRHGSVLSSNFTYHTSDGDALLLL
Chain of Putative adhesion G protein-coupled receptor F2P (Homo sapiens) (Q8IZF7 whole entry): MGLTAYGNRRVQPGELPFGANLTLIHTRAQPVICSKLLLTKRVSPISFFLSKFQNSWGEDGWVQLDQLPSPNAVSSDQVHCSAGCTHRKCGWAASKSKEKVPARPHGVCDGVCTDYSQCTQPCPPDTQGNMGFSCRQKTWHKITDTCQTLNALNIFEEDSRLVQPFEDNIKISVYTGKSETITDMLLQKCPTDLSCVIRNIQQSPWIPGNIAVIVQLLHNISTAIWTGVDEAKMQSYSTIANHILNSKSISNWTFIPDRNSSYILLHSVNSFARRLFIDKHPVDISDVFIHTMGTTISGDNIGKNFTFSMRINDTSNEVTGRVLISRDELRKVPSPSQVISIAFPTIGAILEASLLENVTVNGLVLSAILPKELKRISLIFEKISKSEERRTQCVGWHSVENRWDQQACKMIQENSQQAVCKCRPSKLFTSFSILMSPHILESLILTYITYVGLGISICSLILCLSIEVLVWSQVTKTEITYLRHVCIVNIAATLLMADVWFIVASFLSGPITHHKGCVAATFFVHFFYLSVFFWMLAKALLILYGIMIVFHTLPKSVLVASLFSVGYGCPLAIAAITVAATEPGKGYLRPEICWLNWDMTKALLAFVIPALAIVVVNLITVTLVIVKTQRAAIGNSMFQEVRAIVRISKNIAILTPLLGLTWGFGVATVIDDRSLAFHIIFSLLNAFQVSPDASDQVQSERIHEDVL
Chain of Metabotropic glutamate receptor 6 (Homo sapiens) (O15303 whole entry): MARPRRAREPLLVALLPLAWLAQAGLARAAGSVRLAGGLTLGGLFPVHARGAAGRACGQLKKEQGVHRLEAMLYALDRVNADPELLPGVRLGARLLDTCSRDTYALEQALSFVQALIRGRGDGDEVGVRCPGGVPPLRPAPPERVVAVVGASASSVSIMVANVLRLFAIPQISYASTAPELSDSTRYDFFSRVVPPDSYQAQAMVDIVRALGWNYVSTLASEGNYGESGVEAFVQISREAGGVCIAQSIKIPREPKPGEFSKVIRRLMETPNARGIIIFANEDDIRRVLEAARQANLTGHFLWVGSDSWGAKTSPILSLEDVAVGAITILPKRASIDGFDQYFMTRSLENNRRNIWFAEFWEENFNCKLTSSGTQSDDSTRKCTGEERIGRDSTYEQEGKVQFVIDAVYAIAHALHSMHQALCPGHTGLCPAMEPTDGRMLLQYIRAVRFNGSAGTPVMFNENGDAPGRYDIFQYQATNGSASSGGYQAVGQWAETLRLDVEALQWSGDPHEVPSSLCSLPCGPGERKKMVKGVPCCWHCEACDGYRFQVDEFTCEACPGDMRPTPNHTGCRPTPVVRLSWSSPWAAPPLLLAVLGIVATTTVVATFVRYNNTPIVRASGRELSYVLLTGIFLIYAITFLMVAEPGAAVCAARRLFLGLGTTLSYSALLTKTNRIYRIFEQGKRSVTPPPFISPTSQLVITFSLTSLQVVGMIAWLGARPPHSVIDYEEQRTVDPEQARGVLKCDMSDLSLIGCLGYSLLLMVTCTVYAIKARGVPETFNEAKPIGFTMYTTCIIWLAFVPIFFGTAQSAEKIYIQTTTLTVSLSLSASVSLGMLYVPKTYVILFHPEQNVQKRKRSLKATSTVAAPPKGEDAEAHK
Chain of Beta-3 adrenergic receptor (Homo sapiens) (P13945 whole entry, looked up): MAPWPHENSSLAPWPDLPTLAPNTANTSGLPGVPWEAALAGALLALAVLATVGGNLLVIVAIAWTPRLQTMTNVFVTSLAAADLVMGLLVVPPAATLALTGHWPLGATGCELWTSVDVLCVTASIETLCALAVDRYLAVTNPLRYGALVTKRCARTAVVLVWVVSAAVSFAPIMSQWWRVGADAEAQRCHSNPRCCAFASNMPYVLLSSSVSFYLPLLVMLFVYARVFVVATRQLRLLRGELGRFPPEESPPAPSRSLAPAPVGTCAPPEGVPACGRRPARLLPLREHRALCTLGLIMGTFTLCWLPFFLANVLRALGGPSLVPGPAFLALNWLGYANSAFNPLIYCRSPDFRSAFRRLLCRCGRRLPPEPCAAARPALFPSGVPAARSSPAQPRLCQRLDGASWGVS
Chain of Probable G-protein coupled receptor 174 (Homo sapiens) (Q9BXC1 whole entry): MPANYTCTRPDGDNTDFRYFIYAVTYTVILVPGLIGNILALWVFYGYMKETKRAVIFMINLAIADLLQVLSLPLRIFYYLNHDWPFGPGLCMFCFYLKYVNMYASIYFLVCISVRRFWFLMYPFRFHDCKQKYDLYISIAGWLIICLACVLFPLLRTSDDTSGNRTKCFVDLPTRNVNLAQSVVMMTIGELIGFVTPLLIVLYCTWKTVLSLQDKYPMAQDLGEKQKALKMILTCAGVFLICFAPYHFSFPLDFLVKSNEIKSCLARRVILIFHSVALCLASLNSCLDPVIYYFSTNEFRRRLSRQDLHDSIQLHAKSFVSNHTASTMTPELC
Chain of Chemerin-like receptor 2 (Homo sapiens) (P46091 whole entry): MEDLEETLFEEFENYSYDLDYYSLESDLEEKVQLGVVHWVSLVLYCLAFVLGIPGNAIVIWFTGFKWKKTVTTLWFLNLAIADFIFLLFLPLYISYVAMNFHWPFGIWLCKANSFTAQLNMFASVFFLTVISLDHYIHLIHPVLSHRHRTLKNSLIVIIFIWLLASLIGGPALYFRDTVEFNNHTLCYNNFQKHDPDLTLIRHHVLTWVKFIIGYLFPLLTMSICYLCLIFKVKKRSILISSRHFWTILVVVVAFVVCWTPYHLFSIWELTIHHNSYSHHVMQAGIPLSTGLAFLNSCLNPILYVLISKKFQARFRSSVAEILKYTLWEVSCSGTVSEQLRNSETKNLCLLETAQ

RLU [1]: 1690 | RLU [2]: -12800 | RLU [3]: 275 | RLU [4]: 86500 | RLU [5]: -568 | RLU [6]: -1880 | RLU [7]: -1600 | RLU [8]: 892 | RLU [9]: -10100 | RLU [10]: 1330 | RLU [11]: -333 | RLU [12]: -3290 | RLU [13]: 471 | RLU [14]: 868 | RLU [15]: -1210 | RLU [16]: -1250 | RLU [17]: 13.4 | RLU [18]: 3790 | RLU [19]: -153 | RLU [20]: -60.1 | RLU [21]: 6610 | RLU [22]: -158 | RLU [23]: 2420 | RLU [24]: 12400 | RLU [25]: -9420 | RLU [26]: -102 | RLU [27]: -8050 | RLU [28]: -1650 | RLU [29]: -1360 | RLU [30]: 897 | RLU [31]: -158 | RLU [32]: -114 | RLU [33]: 14100 | RLU [34]: 1630 | RLU [35]: 2600
SMILES: CCCCC(=O)N1CC2(C1)CN(c1ccccc1-c1nnn[nH]1)C2
